In ChEMBL document CHEMBL1201862, “PubChem BioAssay data set” (2004):
Activity calls are given as the source filed them.

What was measured:
[1] = biological target: T1, Polyadenylate-binding protein 1 (Homo sapiens, UniProt P11940); assay: MLLE domain peptide-binding blockers, IC50 – biochemical, fluorescence polarization, FITC-PAM2 peptide, dose response (AID 602259); format: functional; conditions: read-out: IC50_Mean
[2] = biological target: T1, Polyadenylate-binding protein 1; assay: MLLE binding blockers, Cy5 peptide tracer – biochemical, fluorescence polarization, Cy5-PAM2 peptide, secondary, miRNA deadenylation inhibitor project, dose response (AID 602260); format: functional; conditions: read-out: IC50_Mean
[3] = P. falciparum Dd2 growth inhibitors, dose response, SYBR Green, cherry-picked samples (AID 1159567); format: functional, cell-based
[4] = luciferase reporter signal suppression in cells – H4 neuroglioma cells, luminescence, dose response (AID 1990); format: functional, cell-based
[5] = Luminescence Cell-Based Dose Response HTS to Identify Inhibitors of 5'UTR Stem-Loop Driven Prion Protein mRNA Translation in H4 Neuroglioblastoma Cells. [Related pubchem assays: 1827 (Project Summary), 1813 (Primary HTS)]; format: functional
[6] = alpha-synuclein stem-loop luciferase translation blockers – H4 neuroglioma cells, luminescence, confirmation (AID 1988); format: functional, cell-based
[7] = biological target: Luciferin 4-monooxygenase (Photinus pyralis, UniProt P08659); assay: inhibition of purified Photinus pyralis luciferase – biochemical, luminescence, dose response (AID 1891)
[8] = Luminescence Cell-Based Dose Confirmation HTS to Identify Inhibitors of Platelet Dense Granule Release. [Related pubchem assays: 1663 (Primary HTS), 1678 (Summary of Project)]; format: functional
Large T antigen = Large T antigen (Simian virus 40, UniProt P03070); format: functional, Betapolyomavirus macacae;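 also: Confirmatory-stage PubChem screen for compounds that inhibit SV40 T antigen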
[9] = HIV-1 AD8 envelope cell-cell fusion blockers – cherry-pick, dose response (AID 652062); format: functional, cell-based;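 also: luciferase signal from cell-cell fusion driven by HIV-1 clade B AD8 Env; potency is for inhibitors of fusion seen as a drop in luminescence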
[10] = blockers of HIV-1 envelope-mediated cell-cell fusion – cherry-pick, dose response (AID 652057); format: functional, cell-based
[11] = blockers of HIV-1 ZM109 envelope-driven cell-cell fusion – HeLa effector, CEM target cells, luciferase, cherry-pick, dose response (AID 652058); format: functional, cell-based;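 also: luciferase signal from HIV-1 Env mediated cell-cell fusion of effector and target cells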
[12] = viability of PTEN-deleted HCT116 cells – cell-based, HCT116 PTEN knockout, dose response (AID 1047); format: functional;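 also: HCT116 colon tumor cells with PTEN knocked out; cells exposed to compound for 60 hours before readout; potency for loss of cell viability measured by luminescence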
[13] = viability of HCT116 lacking mutant beta-catenin – cell-based, human colon tumor, dose response (AID 1045); format: functional;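 also: HCT116 colon tumor cells with beta catenin knocked out; cells exposed to compound for 60 hours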
Genome polyprotein = Genome polyprotein (dengue virus type 2, UniProt P29990); assay: flavivirus cap methylation enzyme inhibition – biochemical, confirmation dose response, primary screen (AID 588689); format: functional
[14] = reduction of Shn3 3'UTR-driven luciferase in osteoblasts – cell-based, Clone20 osteoblasts, firefly luciferase, cherry-picked, dose response (AID 624132); format: functional;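 also: firefly luciferase luminescence from reporter carrying the Shn3 3'UTR in osteoblasts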
[15] = non-specific 3'UTR reporter inhibition in Clone20-Shn3RL – cell-based, Renilla luciferase, cherry-picked, counter-screen for Shn3 inhibitor project, dose response (AID 624133); format: functional
Nonstructural protein 1 = Nonstructural protein 1 (Influenza A virus, UniProt Q194T2); format: functional, Influenza A virus (A/California/07/2009(H1N1))
[16] = biological target: T2, High affinity choline transporter 1 (Homo sapiens, UniProt Q9GZV3); assay: human choline transporter blockers, potency – cell-based, 5-point CRC, membrane potential dye, dose response (AID 504840); format: functional
T2 sequence (Q9GZV3 whole entry): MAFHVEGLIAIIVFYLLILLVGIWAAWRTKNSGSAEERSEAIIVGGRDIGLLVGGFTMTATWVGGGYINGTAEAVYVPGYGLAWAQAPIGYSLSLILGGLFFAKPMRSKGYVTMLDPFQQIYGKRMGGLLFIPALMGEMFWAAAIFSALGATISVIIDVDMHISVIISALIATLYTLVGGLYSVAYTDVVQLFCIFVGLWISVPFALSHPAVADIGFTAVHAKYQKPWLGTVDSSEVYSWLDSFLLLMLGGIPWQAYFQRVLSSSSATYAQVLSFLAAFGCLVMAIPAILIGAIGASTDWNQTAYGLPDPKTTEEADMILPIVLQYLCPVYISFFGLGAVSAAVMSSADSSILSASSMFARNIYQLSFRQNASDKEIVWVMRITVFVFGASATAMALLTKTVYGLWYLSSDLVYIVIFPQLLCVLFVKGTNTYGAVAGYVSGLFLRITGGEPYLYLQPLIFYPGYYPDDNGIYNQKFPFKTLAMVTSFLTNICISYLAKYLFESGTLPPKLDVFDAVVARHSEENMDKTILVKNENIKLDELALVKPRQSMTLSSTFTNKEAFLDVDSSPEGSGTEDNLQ

T1 sequence (P11940 whole entry, the tested form may be a part): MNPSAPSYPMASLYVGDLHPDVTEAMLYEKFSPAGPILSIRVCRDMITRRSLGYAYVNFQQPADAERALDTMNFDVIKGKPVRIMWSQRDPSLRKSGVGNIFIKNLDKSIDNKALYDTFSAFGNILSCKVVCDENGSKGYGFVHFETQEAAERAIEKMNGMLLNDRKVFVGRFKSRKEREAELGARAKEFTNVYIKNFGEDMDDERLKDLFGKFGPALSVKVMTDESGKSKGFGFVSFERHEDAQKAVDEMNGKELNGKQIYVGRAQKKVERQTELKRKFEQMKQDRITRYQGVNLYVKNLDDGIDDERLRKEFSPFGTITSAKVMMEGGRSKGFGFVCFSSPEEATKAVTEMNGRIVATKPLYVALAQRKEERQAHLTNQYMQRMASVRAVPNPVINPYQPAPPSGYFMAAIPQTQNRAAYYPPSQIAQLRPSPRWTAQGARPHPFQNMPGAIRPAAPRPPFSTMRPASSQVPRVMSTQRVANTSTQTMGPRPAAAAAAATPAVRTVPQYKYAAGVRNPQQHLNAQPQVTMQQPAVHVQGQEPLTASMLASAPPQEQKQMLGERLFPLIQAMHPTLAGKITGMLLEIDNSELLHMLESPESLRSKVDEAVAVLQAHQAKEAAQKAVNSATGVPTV
Luciferin 4-monooxygenase, sequence (P08659 whole entry): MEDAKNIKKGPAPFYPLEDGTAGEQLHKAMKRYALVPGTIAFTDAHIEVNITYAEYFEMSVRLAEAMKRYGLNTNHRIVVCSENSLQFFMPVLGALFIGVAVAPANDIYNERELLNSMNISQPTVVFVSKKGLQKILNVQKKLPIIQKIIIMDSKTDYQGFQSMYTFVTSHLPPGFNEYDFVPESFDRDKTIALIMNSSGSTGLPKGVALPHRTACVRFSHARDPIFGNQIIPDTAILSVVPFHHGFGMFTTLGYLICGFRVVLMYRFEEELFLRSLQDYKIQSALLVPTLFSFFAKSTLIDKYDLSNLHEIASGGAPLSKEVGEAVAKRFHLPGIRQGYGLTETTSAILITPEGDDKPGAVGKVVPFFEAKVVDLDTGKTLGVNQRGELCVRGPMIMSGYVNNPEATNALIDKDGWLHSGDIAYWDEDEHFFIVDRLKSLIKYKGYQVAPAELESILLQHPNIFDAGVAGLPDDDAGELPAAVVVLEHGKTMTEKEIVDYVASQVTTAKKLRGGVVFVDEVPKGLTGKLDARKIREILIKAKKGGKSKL
Large T antigen, sequence (P03070 whole entry, the tested form may be a part): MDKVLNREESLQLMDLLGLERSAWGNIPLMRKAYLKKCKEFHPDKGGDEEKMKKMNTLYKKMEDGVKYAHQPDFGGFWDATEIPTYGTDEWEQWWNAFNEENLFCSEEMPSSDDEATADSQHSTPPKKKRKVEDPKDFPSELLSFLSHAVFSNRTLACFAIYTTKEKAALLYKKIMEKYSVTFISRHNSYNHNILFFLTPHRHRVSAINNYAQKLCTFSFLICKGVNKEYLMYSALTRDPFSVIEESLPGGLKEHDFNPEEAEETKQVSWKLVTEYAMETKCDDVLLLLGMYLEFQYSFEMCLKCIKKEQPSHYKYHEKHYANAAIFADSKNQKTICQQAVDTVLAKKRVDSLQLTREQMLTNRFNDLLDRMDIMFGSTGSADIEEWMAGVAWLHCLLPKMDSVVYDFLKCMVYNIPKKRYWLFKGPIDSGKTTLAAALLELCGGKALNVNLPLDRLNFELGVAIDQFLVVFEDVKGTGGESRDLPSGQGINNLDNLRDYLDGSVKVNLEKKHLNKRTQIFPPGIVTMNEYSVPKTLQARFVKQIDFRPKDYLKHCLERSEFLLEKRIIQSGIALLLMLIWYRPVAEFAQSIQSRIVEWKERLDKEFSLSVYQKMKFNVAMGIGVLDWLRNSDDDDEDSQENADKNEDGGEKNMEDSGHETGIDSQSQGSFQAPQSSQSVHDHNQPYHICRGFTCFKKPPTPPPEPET
Genome polyprotein, sequence (P29990 2492-3391 limits assumed): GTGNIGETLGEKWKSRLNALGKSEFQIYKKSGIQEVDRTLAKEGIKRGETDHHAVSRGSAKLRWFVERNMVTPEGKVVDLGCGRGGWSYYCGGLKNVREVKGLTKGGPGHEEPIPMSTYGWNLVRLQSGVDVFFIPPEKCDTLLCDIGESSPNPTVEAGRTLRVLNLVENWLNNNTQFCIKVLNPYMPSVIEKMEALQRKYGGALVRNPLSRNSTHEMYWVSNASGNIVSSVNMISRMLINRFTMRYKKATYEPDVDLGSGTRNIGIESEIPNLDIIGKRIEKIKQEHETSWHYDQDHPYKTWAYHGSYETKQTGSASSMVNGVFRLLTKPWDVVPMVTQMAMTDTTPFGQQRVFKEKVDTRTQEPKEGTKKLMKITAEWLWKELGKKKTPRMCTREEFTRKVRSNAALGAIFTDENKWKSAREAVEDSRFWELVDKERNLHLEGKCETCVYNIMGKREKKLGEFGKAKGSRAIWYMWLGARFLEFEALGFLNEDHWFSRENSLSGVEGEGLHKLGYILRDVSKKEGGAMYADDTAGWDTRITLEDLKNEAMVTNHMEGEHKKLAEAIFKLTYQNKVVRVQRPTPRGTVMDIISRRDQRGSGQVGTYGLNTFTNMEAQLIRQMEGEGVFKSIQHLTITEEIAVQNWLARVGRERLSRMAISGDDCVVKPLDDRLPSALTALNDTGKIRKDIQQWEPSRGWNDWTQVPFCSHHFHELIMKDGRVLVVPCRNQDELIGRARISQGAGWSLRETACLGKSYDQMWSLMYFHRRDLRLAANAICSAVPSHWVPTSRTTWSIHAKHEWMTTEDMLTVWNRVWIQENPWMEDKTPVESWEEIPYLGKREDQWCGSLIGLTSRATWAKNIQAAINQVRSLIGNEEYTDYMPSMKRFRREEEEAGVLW
Nonstructural protein 1, sequence (Q194T2 whole entry): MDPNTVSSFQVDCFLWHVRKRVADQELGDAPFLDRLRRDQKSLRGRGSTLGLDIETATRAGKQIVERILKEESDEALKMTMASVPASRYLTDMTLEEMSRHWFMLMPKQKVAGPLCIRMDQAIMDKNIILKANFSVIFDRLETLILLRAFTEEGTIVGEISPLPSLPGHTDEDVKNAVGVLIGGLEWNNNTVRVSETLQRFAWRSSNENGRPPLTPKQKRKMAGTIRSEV

In the case of COC(=O)c1ccc2c(=O)n(NC(=O)C(c3ccccc3)c3ccccc3)c(=S)[nH]c2c1, the IC50 [1] is reported as > 66 µM (inactive) and the IC50 [2] is reported as > 66 µM (inactive).

For CCCNC(=O)Nc1ccc2c(c1)OC[C@H](C)N(Cc1ccc(-c3ccccn3)cc1)C[C@H](C)[C@H](OC)CN(C)C2=O, the AC50 [3] was 5.09 µM (active).

For c1ccc(CNc2nc3ccccc3n3cnnc23)cc1, the EC50 [4] was > 120 µM (not active), the EC50 [5] was > 120 µM (not active) and the EC50 [6] was 22.2 µM (active).

For CC1CCCCC1NC(=O)Cn1nnc2ccccc2c1=O (configuration not stated), the EC50 [4] was > 120 µM (not active), the EC50 [5] was > 120 µM (not active) and the EC50 [6] was > 120 µM (not active).

With COc1ccc(CNC(=O)c2cc(S(=O)(=O)N3CCCC3)cn2C)cc1 the EC50 [7] was > 112 µM (not active) and the EC50 [8] was > 112 µM (not active).

With COc1ccc2[nH]c3c(=O)n(CCCCC(=O)NCCN4CCCC4)c(=S)[nH]c3c2c1 the IC50 (Large T antigen) was 10.4 µM (active).

With O=C(C[C@@H]1CC[C@H](NC(=O)c2cccc(F)c2)[C@H](CO)O1)NCc1ccc(Oc2ccccc2)cc1 the AC50 [9] was 15.2 µM (active), the AC50 [10] was 28.5 µM (active) and the AC50 [11] was 27 µM (active).

For CC(C)(C)C(=O)/C(=C\c1ccc([N+](=O)[O-])cc1)n1cncn1, the EC50 [12] was 1.58 µM (active), the EC50 [7] was > 112 µM (not active) and the EC50 [13] was 1.29 µM (active). For the same compound, the EC50 [8] was 5.77 µM (active).

With O=C(Nc1ccc(O)cc1)c1ccc2c(c1)C(=O)N(Cc1ccco1)C2=O the IC50 (Large T antigen) was 9.65 µM (active).

For CCOC(=O)c1c(/N=C/c2cccc([N+](=O)[O-])c2O)sc(C)c1C, the IC50 [1] was 36.1 µM (inactive) and the IC50 (Genome polyprotein) was 77.1 µM (active).

In the case of CCN1CCSc2ccc(C(=O)NCc3ccccc3C)cc21, the EC50 [7] is reported as > 112 µM (not active) and the EC50 [8] is reported as > 112 µM (not active).

For CCCCN1C2=NCCCN2c2cc(C)c(C)cc21, the AC50 [14] was 0.803 µM (active) and the AC50 [15] was 4.56 µM (active).

With Cc1c(NC(=S)N/N=C/c2ccc([N+](=O)[O-])cc2O)c(=O)n(-c2ccccc2)n1C the IC50 (Nonstructural protein 1) was 5.14 µM (active).

With CCc1ccc(C(=O)COC(=O)CNC(=O)c2ccco2)cc1 the EC50 [7] was > 112 µM (not active) and the EC50 [8] was > 112 µM (not active).

With CO[C@H]1CN(C)C(=O)c2cc(NC(=O)Cc3ccccc3)ccc2OC[C@H](C)N(C(=O)c2ccccc2F)C[C@H]1C the AC50 [3] was 4.94 µM (active).

In the case of COc1ccc2c3c([nH]c2c1)[C@H](CO)N(Cc1ccccc1OC)CC31CCN(S(=O)(=O)c2ccccc2)CC1, the AC50 [3] is reported as 6.43 µM (active).

For Fc1c(F)c(F)c(/C=N/NC(=S)Nc2cccnc2)c(F)c1F, the IC50 [1] was > 66 µM (inactive) and the IC50 [2] was > 66 µM (inactive).

For O=C(O)C1=CC[C@@H](c2ccc(Cl)cc2)N(S(=O)(=O)c2ccc(Cl)cc2)[C@H]1c1ccc(F)cc1, the IC50 [16] was 13.2 µM (active).

In the case of Cc1ccc(S(=O)(=O)Nc2ccc3c(c2)CC(=O)N([C@H](C)CO)C[C@H](C)[C@H](CN(C)S(=O)(=O)c2ccc(C)cc2)O3)cc1, the AC50 [9] is reported as 4.36 µM (active) and the AC50 [10] is reported as 1.19 µM (active).

With O=C(Nc1ccc(F)cc1)N1CCCCN2[C@H](C1)[C@H](c1ccc(C#Cc3ccccc3)cc1)[C@@H]2CO the AC50 [3] was 5.46 µM (active).

In the case of COC(=O)C(O)(c1cn(C)c2ccccc12)C(F)(F)F (configuration not stated), the EC50 [7] is reported as > 112 µM (not active) and the EC50 [8] is reported as > 112 µM (not active).

In the case of CCCCCCCCN1[C@@H](CC(=O)O)c2ccc(C(F)(F)F)cc2S1(=O)=O, the IC50 [16] is reported as 18.2 µM (active).

For O=C(CCCn1nnc2ccccc2c1=O)N[C@H](C(=O)O)c1ccccc1, the EC50 [7] was > 112 µM (not active) and the EC50 [8] was > 112 µM (not active).
